According to patent US9150543B2, “Substituted indolyl alkyl amino derivatives as inhibitors of histone deacetylase” (Janssen Pharmaceutica N. V., priority 2004, dated 2015):
Converted amounts (≈) assume the structure as drawn.

Columns and labels:
[1] = biological target: histone deacetylase (HeLa nuclear extracts); experiment: In vitro assay for inhibition of histone deacetylase with fluorescent-labelled substrate (C.1.b); assay type: biochemical; conditions: Fluor de Lys substrate
Description: The HDAC Fluorescent Activity Assay/Drug Discovery Kit of Biomol (cat.No: AK-500-0001) was used. The HDAC Fluorescent Activity Assay is based on the Fluor de Lys (Fluorogenic Histone deAcetylase Lysyl) substrate and developer combination. The Fluor de Lys substrate, comprises an acetylated lysine side chain. Deacetylation of the substrate sensitizes the substrate so that, in the second step, treatment with the Fluor de Lys developer produces a fluorophore.
After 30 min, 1 volume of the developer was added. […] For each experiment, controls (containing HeLa nuclear extract and buffer), a blank incubation (containing buffer but no HeLa nuclear extract) and samples (containing compound dissolved in DMSO and further diluted in buffer and HeLa nuclear extract) were run in parallel. In first instance, compounds were tested at a concentration of 10^−5M. […] All sample were tested 4 times. In each test the blank value was subtracted from both the control and the sample values. The control sample represented 100% of substrate deactylation. For each sample the fluorescence was expressed as a percentage of the mean value of the controls. […] Herein the effects of test compounds are expressed as pIC50 (the negative log value of the IC50-value) (see Table F-3).

[2] = test system: A2780 ovarian carcinoma cells; experiment: Antiproliferative activity on A2780 cells, MTT (C.2); assay type: cell-based; conditions: Homo sapiens, 96 h, four days of incubation, read-out: Cellular activity pIC50 C.2 (converted)
Description: All compounds tested were dissolved in DMSO and further dilutions were made in culture medium. Final DMSO concentrations never exceeded 0.1% (v/v) in cell proliferation assays. Controls contained A2780 cells and DMSO without compound and blanks contained DMSO but no cells. MTT was dissolved at 5 mg/ml in PBS. A glycine buffer comprised of 0.1 M glycine and 0.1 M NaCl buffered to pH 10.5 with NaOH (1N) was prepared (all reagents were from Merck).
The human A2780 ovarian carcinoma cells (a kind gift from Dr. T. C. Hamilton [Fox Chase Cancer Centre, Pennsylvania, USA]) were cultured in RPMI 1640 medium supplemented with 2 mM L-glutamine, 50 μg/ml gentamicin and 10% fetal calf serum. Cells were routinely kept as monolayer cultures at 37° C. in a humidified 5% CO2 atmosphere. Cells were passaged once a week using a trypsin/EDTA solution at a split ratio of 1:40. All media and supplements were obtained from Life Technologies. Cells were free of mycoplasma contamination as determined using the Gen-Probe Mycoplasma Tissue Culture kit (supplier: BioMerieux).
Cells were seeded in NUNC™ 96-well culture plates (Supplier: Life Technologies) and allowed to adhere to the plastic overnight. Densities used for plating were 1500 cells per well in a total volume of 200 μl medium. After cell adhesion to the plates, medium was changed and drugs and/or solvents were added to a final volume of 200 μl. Following four days of incubation, medium was replaced by 200 μl fresh medium and cell density and viability was assessed using an MTT-based assay. To each well, 25 μl MTT solution was added and the cells were further incubated for 2 hours at 37° C. The medium was then carefully aspirated and the blue MTT-formazan product was solubilized by addition of 25 μl glycine buffer followed by 100 μl of DMSO. […] Within an experiment, the results for each experimental condition are the mean of 3 replicate wells. For initial screening purposes, compounds were tested at a single fixed concentration of 10^−6 M. For active compounds, the experiments were repeated to establish full concentration-response curves. For each experiment, controls (containing no drug) and a blank incubation (containing no cells or drugs) were run in parallel. The blank value was subtracted from all control and sample values. For each sample, the mean value for cell growth (in absorbance units) was expressed as a percentage of the mean value for cell growth of the control. […] Herein the effects of test compounds are expressed as pIC50 (the negative log value of the IC50-value)(see Table F-3).

[3] = biological target: histone deacetylase (HeLa nuclear extracts); experiment: In vitro assay for inhibition of histone deacetylase with [3H]-labelled substrate (C.1.a); assay type: biochemical; conditions: [3H]-acetylated histone H4 peptide substrate
Description: As a substrate for measuring HDAC activity a synthetic peptide, i.e. the amino acids 14-21 of histone H4, was used. The substrate is biotinylated at the NH2-terminal part with a 6-aminohexanoic acid spacer, and is protected at the COOH-terminal part by an amide group and specifically [^3H]acetylated at lysine 16. The substrate, biotin-(6-aminohexanoic)Gly-Ala-([^3H]-acetyl-Lys-Arg-His-Arg-Lys-Val-NH2), was added in a buffer containing 25 mM Hepes, 1 M sucrose, 0.1 mg/ml BSA and 0.01% Triton X-100 at pH 7.4. After 30 min the deacetylation reaction was terminated by the addition of HCl and acetic acid. (final concentration 0.035 mM and 3.8 mM respectively). After stopping the reaction, the free ^3H-acetate was extracted with ethylacetate. After mixing and centrifugation, the radioactivity in an aliquot of the upper (organic) phase was counted in a β-counter.
For each experiment, controls (containing HeLa nuclear extract and DMSO without compound), a blank incubation (containing DMSO but no HeLa nuclear extract or compound) and samples (containing compound dissolved in DMSO and HeLa nuclear extract) were run in parallel. In first instance, compounds were tested at a concentration of 10^−5M. […] In each test the blank value was subtracted from both the control and the sample values. The control sample represented 100% of substrate deactylation. For each sample the radioactivity was expressed as a percentage of the mean value of the controls. […] Herein the effects of test compounds are expressed as pIC50 (the negative log value of the IC50-value) (see Table F-3).

[4] = Solubility/stability at different pH's, chemiluminescent nitrogen detector (C.3.b); assay type: physicochemical; conditions: aqueous buffer; pH = 2.3
Source text: In a second method the solubility of a compound at different pH's can be measured with the use of a Chemiluminescent Nitrogen Detector (see example C.3.b).
The solubility of a compound, at different pH's, can also be measured with the use of a chemiluminescent nitrogen detector. (see Table F-3).

Row | SMILES | Enzymatic activity pIC50 C.1.b [1] | IC50 [2] | melting point | Enzymatic activity pIC50 C.1.a. [3] | solubility [4]
1 | O=C(NO)c1cnc(N2CCC(CNCc3c[nH]c4ccc(Cl)cc34)CC2)nc1 [Compound 2] | 8.4 | 31.6 nM | 205 °C |  | 
2 | CN(CCc1c[nH]c2ccccc12)CC1CCN(c2ncc(C(=O)NO)cn2)CC1 [Compound 3] |  | 200 nM | 121 °C | 8.5 | 
3 | Cn1cc(CNC2CCN(c3ncc(C(=O)NO)cn3)CC2)c2ccccc21 [Compound 6] |  | 501 nM |  | 8.2 | 
4 | O=C(NO)c1cnc(N2CCC(NCc3c[nH]c4ccccc34)CC2)nc1 [Compound 7] |  | 794 nM |  | 8.5 | 
5 | Cn1cc(CCNCC2CCN(c3ncc(C(=O)NO)cn3)CC2)c2ccccc21 [Compound 19] | 8.0 | 79.4 nM | 174 °C |  | 
6 | CCN(Cc1cn(CC)c2ccccc12)CC1CCN(c2ncc(C(=O)NO)cn2)CC1 [Compound 20] | 9.5 | 7.94 nM | 90 °C |  | 2700 µg/mL (≈ 6.18 mM)
7 | CN(CCc1cn(C)c2ccccc12)CC1CCN(c2ncc(C(=O)NO)cn2)CC1 [Compound 21] | 8.5 | 25.1 nM | 83 °C |  | 1900 µg/mL (≈ 4.5 mM)
8 | Cn1cc(CCN(CC2CCN(c3ncc(C(=O)NO)cn3)CC2)S(C)(=O)=O)c2cc(Cl)ccc21 [Compound 22] | 9.1 | 63.1 nM | 183 °C |  | 
9 | CCn1c(C)c(CCNC2CCN(c3ncc(C(=O)NO)cn3)CC2)c2ccccc21 [Compound 23] | 8.4 | 31.6 nM | 182 °C |  | 
10 | COc1ccc2c(CCNCC3CCN(c4ncc(C(=O)NO)cn4)CC3)cn(C)c2c1 [Compound 24] | 7.6 | 316 nM | 160 °C |  | 1600 µg/mL (≈ 3.65 mM)
11 | CCCn1cc(CCN(CC)CC2CCN(c3ncc(C(=O)NO)cn3)CC2)c2ccc(OC)cc21 [Compound 25] | 7.6 | 100 nM | 80 °C |  | 
12 | Cn1cc(CCNCC2CCN(c3ncc(C(=O)NO)cn3)CC2)c2cc(Cl)ccc21 [Compound 26] | >9.0 | 31.6 nM | 188 °C |  | 
13 | CCCn1cc(CNCC2CCN(c3ncc(C(=O)NO)cn3)CC2)c2cc(Cl)ccc21 [Compound 27] | >9.0 | 10 nM | 171 °C |  | 
14 | Cc1c(CCNCC2CCN(c3ncc(C(=O)NO)cn3)CC2)c2ccccc2n1C [Compound 28] | 8.1 | 79.4 nM | 80 °C |  | 
15 | COc1ccc2c(c1)c(CNCC1CCN(c3ncc(C(=O)NO)cn3)CC1)cn2C [Compound 33] | 10.0 | 31.6 nM |  |  | 1600 µg/mL (≈ 3.77 mM)
16 | Cc1ccc2c(c1)c(CNCC1CCN(c3ncc(C(=O)NO)cn3)CC1)cn2C [Compound 36] | 8.7 | 2.51 nM |  |  | 2500 µg/mL (≈ 6.12 mM)

Row | SMILES | Enzymatic activity pIC50 C.1.b [1] | IC50 [2] | melting point | Enzymatic activity pIC50 C.1.a. [3] | solubility [4]
17 | Cn1cc(CNCC2CCN(c3ncc(C(=O)NO)cn3)CC2)c2c(F)cccc21 [Compound 39] | 9.0 | 31.6 nM |  |  | 2000 µg/mL (≈ 4.85 mM)
18 | CCCCn1cc(CNCC2CCN(c3ncc(C(=O)NO)cn3)CC2)c2ccccc21 [Compound 43] | 8.5 | 15.8 nM |  |  | 2100 µg/mL (≈ 4.81 mM)
19 | Cn1ccc2cc(CNCC3CCN(c4ncc(C(=O)NO)cn4)CC3)ccc21 [Compound 44] | 8.2 | 39.8 nM |  |  | 1800 µg/mL (≈ 4.56 mM)
20 | CCCn1cc(CNCC2CCN(c3ncc(C(=O)NO)cn3)CC2)c2cc3c(cc21)OCO3 [Compound 45] | 9.0 | 200 nM |  |  | 1700 µg/mL (≈ 3.64 mM)
21 | COCCn1cc(CNCC2CCN(c3ncc(C(=O)NO)cn3)CC2)c2ccccc21 [Compound 47] | 8.8 | 10 nM |  |  | 4000 µg/mL (≈ 9.12 mM)
22 | Cn1ccc2c(CNCC3CCN(c4ncc(C(=O)NO)cn4)CC3)cccc21 [Compound 49] | 8.7 | 31.6 nM |  |  | 3300 µg/mL (≈ 8.37 mM)
23 | Cn1ccc2ccc(CNCC3CCN(c4ncc(C(=O)NO)cn4)CC3)cc21 [Compound 50] | 8.6 | 25.1 nM |  |  | 2400 µg/mL (≈ 6.08 mM)
24 | Cn1cc(CNCC2CCN(c3ncc(C(=O)NO)cn3)CC2)c2cc(C#N)ccc21 [Compound 55] | 10.1 | 15.8 nM |  |  | 2000 µg/mL (≈ 4.77 mM)
25 | Cn1ccc2cccc(CNCC3CCN(c4ncc(C(=O)NO)cn4)CC3)c21 [Compound 57] | 10.2 | 25.1 nM |  |  | 2800 µg/mL (≈ 7.1 mM)
26 | COc1cc2c(CNCC3CCN(c4ncc(C(=O)NO)cn4)CC3)cn(C)c2cc1OC [Compound 60] | 8.7 | 126 nM |  |  | 3100 µg/mL (≈ 6.82 mM)
27 | CCN(CCc1cn(C)c2ccc(Cl)cc12)CC1CCN(c2ncc(C(=O)NO)cn2)CC1 [Compound 65] | >9.0 | 31.6 nM |  |  | 1600 µg/mL (≈ 3.4 mM)
28 | CCN(CCc1cn(C)c2ccccc12)CC1CCN(c2ncc(C(=O)NO)cn2)CC1 [Compound 66] | >9.0 | 39.8 nM |  |  | 1700 µg/mL (≈ 3.89 mM)
29 | CN(Cc1cn(C)c2ccccc12)CC1CCN(c2ncc(C(=O)NO)cn2)CC1 [Compound 67] | 8.3 | 31.6 nM |  |  | 1900 µg/mL (≈ 4.65 mM)
30 | CCN(Cc1cn(C)c2ccccc12)CC1CCN(c2ncc(C(=O)NO)cn2)CC1 [Compound 68] | >9.0 | 63.1 nM |  |  | 2500 µg/mL (≈ 5.92 mM)
31 | Cc1ccc2c(CNCC3CCN(c4ncc(C(=O)NO)cn4)CC3)cn(C)c2c1 [Compound 79] | 8.4 | 7.94 nM |  |  | 2700 µg/mL (≈ 6.61 mM)
